# PubChem BioAssay AID1794802 (Yongcheng Song lab at Baylor College of Medicine, 2022)
# Calls of active or inactive are those of the source.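 The calls were made as follows: active = EC50 under 50 µM in a live-cell viability test; inactive = the rest.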
# Tested on: Molm13 AML cells, XTT viability
# Test: Molm13 antiproliferative activity – cell-based, XTT viability, AHD inhibitor project, dose response (AID 1794802)
row,EC50,SMILES
1,9.4 µM,O=C(NCC1CCNCC1)c1cc2ccc(-c3ccc(N4CCCC4)cc3)cc2s1
2,29 µM,O=C(NCC1CCNCC1)c1c[nH]c2cc(-c3ccc(N4CCCCC4)cc3)ccc12
3,10 µM,O=C(NCC1CCNCC1)c1cc2cc(-c3ccc(N4CCCCC4)cc3)ccc2[nH]1
4,13 µM,O=C(NCC1CCNCC1)c1coc2cc(-c3ccc(N4CCCCC4)cc3)ccc12
5,4.7 µM,O=C(NCC1CCNCC1)c1cc2ccc(-c3ccc(N4CCCCC4)cc3)cc2s1
6,5.1 µM,O=C(NCC1CCNCC1)c1cc2cc(-c3ccc(N4CCCCC4)cc3)ccc2s1
7,50 µM,O=C(NCC1CCNCC1)c1c[nH]c2cc(-c3ccc(N4CCCC4)cc3)ccc12
8,> 51 µM (inactive),NCc1ccc(-c2ccc3cc(C(=O)NCC4CCNCC4)oc3c2)cc1
9,> 51 µM (inactive),NC(=O)c1ccc(-c2ccc3cc(C(=O)NCC4CCNCC4)sc3c2)cc1
10,> 51 µM (inactive),O=C(NCC1CCNCC1)c1cc2cc(-c3cn[nH]c3)ccc2[nH]1
